From patent US10118922B2 (Janssen Pharmaceutica NV, priority 2013, dated 2018)

Assays:
C57bl/6J Mice = assay: GPR120 C57bl6 mouse IPGTT; format: in vivo; details: dosed 30 min prior to glucose IP 1.5 g/kg
Experimental: Male, C57bl/6J Mice were ordered in at 8 weeks of age from Jackson Labs. Individual mice weighed anywhere in the range of 25-30 grams on study day. The mice were fasted, with removal of food occurring at 7 am on the morning of the study. Animals were moved into the room at 10:00 am, to give them time to acclimate. Glucose (insulin syringes) was drawn up either the night before or the morning of the study. Glucose was dosed (IP) at 1.5 g/kg at 7.5 ml/kg (20% glucose straight TEKNOVA, 250 ml sterile bottle w/ catalogue number G0525). Test compounds were kept spinning and were only drawn into the syringes prior to study commencement. Animals were bled via tail snip to determine basal glucose levels prior to dosing of treatments. An Ascensia BREEZE Blood Glucose Monitoring System by Bayer (using unique 10-test disks) was used for determining glucose levels. The bleeds started at approximately 12:45 pm and dosing started, at 1-minute intervals, immediately after. All groups were dosed 30 minutes prior to glucose administration at a dose volume of 10 ml/kg (the dose volume was calculated separately for each individual animal). Thirty minutes after the first dose animals were bled again for a second baseline, or T=0, and immediately dosed with glucose via an i.p. injection. The exact dose volume for glucose was also calculated separately for each individual animal. Glucose measurements were taken at −30 min prior to compound dose, at t=0 (immediately prior to glucose dose), and at 15, 30, 45, 60, 90 min post glucose dose.
Glucose values were entered into an Excel sheet and graphed in GraphPad Prism. The following were calculated from Prism: Change from −30 to 0 BSLN Glucose, Raw Glucose AUC −30 to 90 min, Delta Glucose AUC −30 to 90 min, Raw Glucose AUC 0 to 90 min, Delta Glucose AUC 0 to 90 min.

Human GPR120 short form = target: T1, Human GPR120 short form (Homo sapiens, UniProt Q5NUL3); assay: Human GPR120 calcium flux assay, Procedure Calcium A; format: cell-based; details: HEK-293 cells, FLIPR, 2500 cells/well; read-out: GPR120 Ca2+ Assay A EC50
T1 construct: expressed in transfected cells
T1 sequence (Q5NUL3 1-361): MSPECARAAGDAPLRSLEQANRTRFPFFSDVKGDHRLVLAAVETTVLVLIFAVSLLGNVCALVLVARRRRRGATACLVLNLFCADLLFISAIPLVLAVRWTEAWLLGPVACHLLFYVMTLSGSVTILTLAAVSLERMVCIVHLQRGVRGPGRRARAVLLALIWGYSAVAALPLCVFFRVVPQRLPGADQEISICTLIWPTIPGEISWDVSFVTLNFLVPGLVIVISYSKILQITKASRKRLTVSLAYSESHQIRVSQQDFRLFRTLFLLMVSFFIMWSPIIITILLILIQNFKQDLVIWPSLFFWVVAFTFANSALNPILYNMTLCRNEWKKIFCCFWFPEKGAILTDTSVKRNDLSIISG
Experimental: These cells are first loaded with the Ca^+2 sensitive dye, Fluo-4 NR. Upon stimulation, intracellular released Ca^+2 can bind to the dye and alter its fluorescence intensity. This increase in fluorescence signal, and thus the flux in intracellular [Ca^2+], is detected and quantitated by fluorescence imaging using a FLIPR reader. The effect of the agonist is measured as a function of concentration and used to calculate an EC50 based upon a response curve.
In this procedure 2500 cells/well were employed.
A Human GPR120 clone (Genbank accession number NM_001195755.1) was placed into the pcDNA3.1 mammalian expression vector carrying the neomycin resistance gene. A stable mammalian cell was generated by placing the above clone into a HEK293 background. […] Cells were split 2 times a week to keep the cells in the log-phase growth.
In preparation for the assay, HEK cells stably transfected with Human GPR120 (2.5K cells per well in 25 uL growth medium) were seeded into 384-well plates and then incubated overnight (37° C., 5% CO2). The next day, the media was changed to 20 μL assay buffer and the cell starved for 1 h at 37° C. The dye loading solution (2× dye) was prepared using 10 mL assay buffer, 100 μL of 250 mM probenecid, 1 bottle of Component A, and 20 μl of dye in DMSO. Twenty μL of the 2× dye loading buffer was then added to each well. The plates were incubated at 37° C. for 30 min, then at room temperature for an additional 15 minutes, before performing the assay on FLIPR.
The assay was performed on a FLIPR plate reader using the following parameters. Baseline was read for 10 seconds at 1 sec intervals. The program was set to transfer 10 μL of ligand from compound plate to cell plate after baseline reading. Aspiration was executed at: 10 μL/sec speed, 4.6 μL height; Dispensing was executed at: 30 μL/sec speed, 45 μL height. After compound addition, each well was read for 300 sec, with measurements collected at 1 sec intervals.
The kinetic data from the FLIPR was based upon a 5 minute window for data collection. The fluorescence of each sample well was used for individual calculations of a normalized RFU value, which was defined as maximum response minus the minimum response. […] The Fitting Equation was: Y=Bottom+(Top-Bottom)/(1+10^((Log EC50−X)*HillSlope)), where X is the log of the concentration and Y is the response.

EC50 (Human GPR120 short form) [µM] | SMILES | C57 IPGTT 10 mg/kg (C57bl/6J Mice) | other results
 | CCc1ccc(-c2nsc(C(F)(F)F)c2COc2c(F)cc(CCC(=O)O)cc2F)cc1 [Cpd 70, 3-(4-[[3-(4-ethylphenyl)-5-(trifluoromethyl)-1,2-thiazol-4-yl]methoxy]-3,5-difluorophenyl)propanoic acid] |  | C57 IPGTT 30 mg/kg (C57bl/6J Mice; 30 mg/kg): −88
 | O=C(O)CCc1cc(F)c(OCc2c(-c3ccc(Cl)cc3)nsc2C(F)(F)F)c(F)c1 [Cpd 79, 3-(4-[[3-(4-chlorophenyl)-5-(trifluoromethyl)-1,2-thiazol-4-yl]methoxy]-3,5-difluorophenyl)propanoic acid] | −60 | 
 | O=C(O)CCc1ccc(OCc2c(-c3ccc(Cl)cc3)nsc2C(F)(F)F)c(F)c1F [Cpd 106, 3-(4-[[3-(4-chlorophenyl)-5-(trifluoromethyl)-1,2-thiazol-4-yl]methoxy]-2,3-difluorophenyl)propanoic acid] | −34 | 
0.323 | Cc1ccc(-c2snc(C(C)C)c2COc2c(F)cc(CCC(=O)O)cc2F)c(F)c1 [Cpd 191] |  | 
3.23 | CCc1ccc(-c2cc(C(F)(F)F)sc2COc2ccc(CCC(=O)O)c(C)c2C)cc1 [Cpd 250, 3-(4-{[3-(4-Ethylphenyl)-5-(trifluoromethyl)thiophen-2-yl]methoxy}-2,3-dimethylphenyl)propanoic acid] |  | 
> 5 | CCc1ccc(-c2nsc(C(F)(F)F)c2COc2c(F)ccc(CC(C)CO)c2F)cc1 (stereo not drawn) [Cpd 251, 3-(3-{[3-(4-Ethylphenyl)-5-(trifluoromethyl)isothiazol-4-yl]methoxy}-2,4-difluorophenyl)-2-methylpropan-1-ol] |  | 
